Reference: paper PMC6681697, “One-Step ^18F-Labeling and Preclinical Evaluation of Prostate-Specific Membrane Antigen Trifluoroborate Probes for Cancer Imaging” (Journal of Nuclear Medicine, 2019)
Read-outs that look alike come from different tables or passages of the source.

How the values were obtained:
LNCaP xenografts [1] = assay: PET/CT imaging of LNCaP tumor-bearing mice; assay type: in vivo; settings: 1 h after injection
Description: Imaging and biodistribution experiments were performed using NODSCID IL2RγKO male mice. All experiments were conducted according to the guidelines established by the Canadian Council on Animal Care and approved by the Animal Ethics Committee of the University of British Columbia. Mice were anesthetized by inhalation with 2% isoflurane in oxygen and implanted subcutaneously with 1 × 10^7 LNCaP cells behind the left shoulder. The mice were imaged or used in biodistribution studies once the tumor reached 5–8 mm in diameter (5–6 wk).
PET imaging experiments were conducted using an Inveon preclinical PET/CT scanner (Siemens). Compounds ^18F-1,2,3,5,7, and 8 were formulated in 10% ethanol/normal saline, whereas ^18F-4 and 6 were formulated in 10% ethanol/phosphate-buffered saline. […] For blocking controls, the mice were coinjected with DCFPyL (0.5 mg). After injection, the mice were allowed to recover and roam freely in their cage. After 50 min, the mice were sedated by 2% isoflurane inhalation and positioned in the scanner. A CT scan was performed first for localization and attenuation correction. This was followed by a 10-min static PET scan. The mice were kept warm by a heating pad during image acquisition. […]

[2] = Distribution coefficient (LogD7.4), shake flask method; assay type: physicochemical; settings: n-octanol / phosphate buffer 0.1 M pH 7.4; n = 3
In short: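 ^18F-labeled tracer partitioned between n-octanol and 0.1 M phosphate buffer pH 7.4, vortexed 2 min, centrifuged 3,000g for 10 min. Both phases counted by γ-counter; LogD7.4 taken as log10 of octanol/buffer count ratio.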

PSMA = target: T1, PSMA (Homo sapiens, UniProt Q04609); assay: In vitro competition binding assay on LNCaP cells with ^18F-DCFPyL as radioligand
T1 construct: because it expresses PSMA endogenously and is commonly used to evaluate PSMA-targeting radiotracers; endogenous in cells; host or cells: LNCaP cells
T1 sequence (Q04609 whole entry): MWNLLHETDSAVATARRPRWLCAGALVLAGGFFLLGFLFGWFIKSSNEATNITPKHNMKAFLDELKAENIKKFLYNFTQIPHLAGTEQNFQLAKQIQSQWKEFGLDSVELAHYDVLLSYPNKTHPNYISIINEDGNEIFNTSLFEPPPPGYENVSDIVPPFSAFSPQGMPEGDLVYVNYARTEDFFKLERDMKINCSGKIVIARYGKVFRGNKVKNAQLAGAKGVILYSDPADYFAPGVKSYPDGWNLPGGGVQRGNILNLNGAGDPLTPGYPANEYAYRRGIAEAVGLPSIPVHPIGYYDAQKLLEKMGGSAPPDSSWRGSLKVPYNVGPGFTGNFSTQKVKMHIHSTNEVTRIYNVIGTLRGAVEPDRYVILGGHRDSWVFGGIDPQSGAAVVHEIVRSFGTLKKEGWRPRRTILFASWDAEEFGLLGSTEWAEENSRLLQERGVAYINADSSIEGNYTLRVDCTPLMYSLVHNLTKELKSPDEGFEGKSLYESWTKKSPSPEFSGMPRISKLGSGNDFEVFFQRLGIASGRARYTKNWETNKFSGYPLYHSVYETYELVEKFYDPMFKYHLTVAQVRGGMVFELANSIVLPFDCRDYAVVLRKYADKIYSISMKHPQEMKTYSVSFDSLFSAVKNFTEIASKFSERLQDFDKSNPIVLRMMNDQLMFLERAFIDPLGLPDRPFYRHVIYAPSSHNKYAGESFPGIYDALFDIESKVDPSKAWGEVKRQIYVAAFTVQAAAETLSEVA
In short: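 Ki values derive from one-site competition fits of γ-counted, cell-associated radioactivity. Cells were washed cold, then harvested by trypsin.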

LNCaP xenografts [3] = assay: Ex vivo biodistribution and blocking studies in mice bearing LNCaP xenografts; settings: for tumor uptake compared with ^18F-DCFPyL: 1-way ANOVA, Dunnett test; for tumor uptake: LNCaP tumor
In short: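 Male NODSCID IL2RγKO mice carried subcutaneous LNCaP tumours (1 × 10^7 cells, 5–8 mm) and received 1–3 MBq radiotracer, unblocked or blocked. Organs and blood taken at 60 min were weighed and γ-counted, giving %ID/g; blocked and unblocked groups were compared by multiple t tests.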

[4] = 1 h blocked (coinjection of DCFPyL 0.5 mg)

SMILES: C[N+](C)(Cc1cn(CC(=O)N[C@@H](CCC(=O)O)C(=O)NCCCC[C@H](NC(=O)[C@H](CCC(=O)O)NC(=O)Cn2cc(C[N+](C)(C)C[B-](F)(F)F)nn2)C(=O)NC[C@H]2CC[C@H](C(=O)N[C@@H](Cc3ccc4ccccc4c3)C(=O)NCCCC[C@H](NC(=O)N[C@@H](CCC(=O)O)C(=O)O)C(=O)O)CC2)nn1)C[B-](F)(F)F [^18F-8]
- accumulation in the liver (LNCaP xenografts [1]; PET/CT): no significant accumulation in the liver
- clearance / excretion pathway (LNCaP xenografts [1]; imaging and biodistribution): no hepatobiliary excretion
- LogD7.4 [2]: −3.58 ± 0.36
- Ki (PSMA; LNCaP cells, 0.1 nM ^18F-DCFPyL radioligand, 1 h at 37°C, n = 3): 0.22 ± 0.01 nM
- T/B (tumor-to-blood ratio) (LNCaP xenografts [3]; 1 h after injection, unblocked): 30.95 ± 7.76
- T/K (tumor-to-kidney ratio) (LNCaP xenografts [3]; 1 h after injection, unblocked): 0.14 ± 0.07
- T/M (tumor-to-muscle ratio) (LNCaP xenografts [3]; 1 h after injection, unblocked): 67.23 ± 25.93
- adrenal uptake (LNCaP xenografts [3]; 1 h after injection, unblocked): 7.72 ± 2.70 %ID/g
- blood uptake (LNCaP xenografts [3]; 1 h after injection, unblocked): 0.56 ± 0.11 %ID/g
- bone uptake (LNCaP xenografts [3]; 1 h after injection, unblocked): 0.25 ± 0.10 %ID/g
- brain uptake (LNCaP xenografts [3]; 1 h after injection, unblocked): 0.02 ± 0.00 %ID/g
- fat uptake (LNCaP xenografts [3]; 1 h after injection, unblocked): 0.80 ± 0.28 %ID/g
- heart uptake (LNCaP xenografts [3]; 1 h after injection, unblocked): 0.28 ± 0.07 %ID/g
- intestine uptake (LNCaP xenografts [3]; 1 h after injection, unblocked): 0.32 ± 0.06 %ID/g
- kidney uptake (LNCaP xenografts [3]; 1 h after injection, unblocked): 143.85 ± 61.73 %ID/g
- liver uptake (LNCaP xenografts [3]; 1 h after injection, unblocked): 0.20 ± 0.05 %ID/g
- lung uptake (LNCaP xenografts [3]; 1 h after injection, unblocked): 1.97 ± 0.34 %ID/g
- muscle uptake (LNCaP xenografts [3]; 1 h after injection, unblocked): 0.27 ± 0.06 %ID/g
- pancreas uptake (LNCaP xenografts [3]; 1 h after injection, unblocked): 0.46 ± 0.15 %ID/g
- spleen uptake (LNCaP xenografts [3]; 1 h after injection, unblocked): 6.47 ± 2.17 %ID/g
- stomach uptake (LNCaP xenografts [3]; 1 h after injection, unblocked): 0.11 ± 0.03 %ID/g
- testes uptake (LNCaP xenografts [3]; 1 h after injection, unblocked): 0.57 ± 0.12 %ID/g
- tumor uptake compared with ^18F-DCFPyL (LNCaP xenografts [3]; 1 h after injection): higher uptake
- T/B (tumor-to-blood ratio) (LNCaP xenografts [3]; [4]): 0.92 ± 0.24
- T/K (tumor-to-kidney ratio) (LNCaP xenografts [3]; [4]): 0.17 ± 0.04
- T/M (tumor-to-muscle ratio) (LNCaP xenografts [3]; [4]): 3.07 ± 0.92
- adrenal uptake (LNCaP xenografts [3]; [4]): 0.14 ± 0.03 %ID/g
- blood uptake (LNCaP xenografts [3]; [4]): 0.39 ± 0.07 %ID/g
- bone uptake (LNCaP xenografts [3]; [4]): 0.15 ± 0.02 %ID/g
- brain uptake (LNCaP xenografts [3]; [4]): 0.01 ± 0.00 %ID/g
- fat uptake (LNCaP xenografts [3]; [4]): 0.06 ± 0.02 %ID/g
- heart uptake (LNCaP xenografts [3]; [4]): 0.13 ± 0.01 %ID/g
- intestine uptake (LNCaP xenografts [3]; [4]): 0.26 ± 0.05 %ID/g
- kidney uptake (LNCaP xenografts [3]; [4]): 2.19 ± 0.44 %ID/g
- liver uptake (LNCaP xenografts [3]; [4]): 0.16 ± 0.04 %ID/g
- lung uptake (LNCaP xenografts [3]; [4]): 0.33 ± 0.06 %ID/g
- muscle uptake (LNCaP xenografts [3]; [4]): 0.13 ± 0.06 %ID/g
- pancreas uptake (LNCaP xenografts [3]; [4]): 0.09 ± 0.03 %ID/g
- spleen uptake (LNCaP xenografts [3]; [4]): 0.12 ± 0.04 %ID/g
- stomach uptake (LNCaP xenografts [3]; [4]): 0.09 ± 0.04 %ID/g
- testes uptake (LNCaP xenografts [3]; [4]): 0.18 ± 0.09 %ID/g
- tumor uptake (LNCaP xenografts [3]; 1 h after injection, unblocked, listed as 8): 16.7 ± 2.7 %ID/g
- tumor uptake (LNCaP xenografts [3]; 1 h after injection, unblocked, listed as [18F]8): 16.66 ± 2.74 %ID/g
- tumor uptake (LNCaP xenografts [3]; [4]): 0.35 ± 0.03 %ID/g

SMILES: O=C(O)CC[C@H](NC(=O)N[C@@H](CCCCNC(=O)c1ccc(Cn2cc(C[n+]3ccc([B-](F)(F)F)cc3)nn2)nc1)C(=O)O)C(=O)O [^18F-4]
- logD at 2 min [2]: -3.34 ± 0.02
- Ki (PSMA): 27.6 ± 3.8 nM
- T/B (tumor-to-blood ratio) (LNCaP xenografts [3]; 1 h after injection, unblocked): 8.70 ± 1.74
- T/K (tumor-to-kidney ratio) (LNCaP xenografts [3]; 1 h after injection, unblocked): 0.04 ± 0.02
- T/M (tumor-to-muscle ratio) (LNCaP xenografts [3]; 1 h after injection, unblocked): 23.40 ± 5.00
- adrenal uptake (LNCaP xenografts [3]; 1 h after injection, unblocked): 6.66 ± 2.33 %ID/g
- blood uptake (LNCaP xenografts [3]; 1 h after injection, unblocked): 0.74 ± 0.15 %ID/g
- bone uptake (LNCaP xenografts [3]; 1 h after injection, unblocked): 0.76 ± 0.57 %ID/g
- brain uptake (LNCaP xenografts [3]; 1 h after injection, unblocked): 0.05 ± 0.01 %ID/g
- fat uptake (LNCaP xenografts [3]; 1 h after injection, unblocked): 1.05 ± 0.49 %ID/g
- heart uptake (LNCaP xenografts [3]; 1 h after injection, unblocked): 0.34 ± 0.08 %ID/g
- intestine uptake (LNCaP xenografts [3]; 1 h after injection, unblocked): 0.48 ± 0.22 %ID/g
- kidney uptake (LNCaP xenografts [3]; 1 h after injection, unblocked): 164.33 ± 50.20 %ID/g
- liver uptake (LNCaP xenografts [3]; 1 h after injection, unblocked): 1.28 ± 0.18 %ID/g
- lung uptake (LNCaP xenografts [3]; 1 h after injection, unblocked): 1.67 ± 0.47 %ID/g
- muscle uptake (LNCaP xenografts [3]; 1 h after injection, unblocked): 0.28 ± 0.07 %ID/g
- pancreas uptake (LNCaP xenografts [3]; 1 h after injection, unblocked): 0.68 ± 0.50 %ID/g
- spleen uptake (LNCaP xenografts [3]; 1 h after injection, unblocked): 3.36 ± 1.08 %ID/g
- stomach uptake (LNCaP xenografts [3]; 1 h after injection, unblocked): 0.15 ± 0.03 %ID/g
- testes uptake (LNCaP xenografts [3]; 1 h after injection, unblocked): 0.67 ± 0.27 %ID/g
- tumor uptake compared with ^18F-DCFPyL (LNCaP xenografts [3]; 1 h after injection): lower tumor uptake than ^18F-DCFPyL
- T/B (tumor-to-blood ratio) (LNCaP xenografts [3]; [4]): 0.75 ± 0.18
- T/K (tumor-to-kidney ratio) (LNCaP xenografts [3]; [4]): 0.11 ± 0.03
- T/M (tumor-to-muscle ratio) (LNCaP xenografts [3]; [4]): 1.91 ± 0.46
- adrenal uptake (LNCaP xenografts [3]; [4]): 0.26 ± 0.15 %ID/g
- blood uptake (LNCaP xenografts [3]; [4]): 0.24 ± 0.11 %ID/g
- bone uptake (LNCaP xenografts [3]; [4]): 0.56 ± 0.20 %ID/g
- brain uptake (LNCaP xenografts [3]; [4]): 0.02 ± 0.01 %ID/g
- fat uptake (LNCaP xenografts [3]; [4]): 0.04 ± 0.03 %ID/g
- heart uptake (LNCaP xenografts [3]; [4]): 0.09 ± 0.04 %ID/g
- intestine uptake (LNCaP xenografts [3]; [4]): 0.18 ± 0.04 %ID/g
- kidney uptake (LNCaP xenografts [3]; [4]): 1.62 ± 0.73 %ID/g
- liver uptake (LNCaP xenografts [3]; [4]): 0.90 ± 0.25 %ID/g
- lung uptake (LNCaP xenografts [3]; [4]): 0.19 ± 0.09 %ID/g
- muscle uptake (LNCaP xenografts [3]; [4]): 0.11 ± 0.08 %ID/g
- pancreas uptake (LNCaP xenografts [3]; [4]): 0.08 ± 0.03 %ID/g
- spleen uptake (LNCaP xenografts [3]; [4]): 0.13 ± 0.06 %ID/g
- stomach uptake (LNCaP xenografts [3]; [4]): 0.06 ± 0.02 %ID/g
- testes uptake (LNCaP xenografts [3]; [4]): 0.08 ± 0.03 %ID/g
- tumor uptake (LNCaP xenografts [3]; 1 h after injection, unblocked, listed as 4): 6.3 ± 0.8 %ID/g
- tumor uptake (LNCaP xenografts [3]; 1 h after injection, unblocked, listed as [18F]4): 6.26 ± 0.82 %ID/g
- tumor uptake (LNCaP xenografts [3]; [4]): 0.18 ± 0.11 %ID/g
